Assay results from US20230348376A1 (TEIJIN PHARMA LIMITED, priority 2020, published 2023).

What was measured:
[1] = system: rat oligodendrocyte progenitor cells; assay: Promotive activity of rat oligodendrocyte progenitor cell differentiation-1 (MBP gene expression, mRNA); assay type: cell-based; details: Rattus norvegicus, Oligodendrocyte progenitor cell, 96 h, read-out: promotive activity at T3 base (MBP gene expression; DMSO 0%, T3 100%), 4 days, MBP/β actin mRNA
Method: Regarding vitamin D derivatives, which was confirmed to act on the vitamin D receptor (VDR) in Example 352, the promotive activity of oligodendrocyte progenitor cell (OPC) differentiation was evaluated by MBP gene expression (mRNA).
A forebrain obtained from SD rat (Charles River Japan, 1 day old) was crushed with 70 μm Cell Strainer (Falcon #352350), and a cell suspension was prepared by collecting the cells in oligodendrocyte progenitor cell separation medium (20% FBS/2 mM Glutamax (Gibco #35050-061)/i mM sodium pyruvate (Gibco #11360-070)/1% penicillin-streptomycin (Invitrogen #15140-122)/DMEM (Gibco #11960-044)). The cell suspension was seeded in a poly-D-lysine coated T75 flask (Thermo Fisher Scientific #132704) and cultured for about 2 weeks. After culturing, the flask was shaken using a rotary shaker ([…] #WB-101SRC) for about 1 hour (37° C., 100 rpm), and the supernatant was discarded to remove microglia. Subsequently, oligodendrocyte progenitor cell separation medium was added to the flask, and the mixture was similarly shaken for about 22 hours (37° C., 200 rpm), and the supernatant was collected to prepare oligodendrocyte progenitor cells.
The oligodendrocyte progenitor cell prepared was suspended in a differentiation medium (2% B27 (Thermo Fisher Scientific, Inc. #17504-044)/1% penicillin-streptomycin (Invitrogen Corporation #15140-122)/10 ng/mL CNTF (PeproTech Inc. #AF-450-13)/DMEM (Gibco #11960-044)), and seeded on a 96-well plate coated with poly-L-ornithine (FUJIFILM Wako Pure Chemical Corporation #163-27421) under the condition of 0.65×10^4 cells/well, and on a 384-well plate under the condition of 2×10^3 cells/well using an automatic dispensing system (LABCYTE #Echo555). […] After culturing, the cells seeded on the 96-well plate were subjected to immunostaining against MBP using following methods: fixation (4% paraformaldehyde solution, 30 minutes, room temperature), PBS washing, membrane permeation treatment (0.1% Trion X-100 (SIGMA #X100-100ML)/PBS, 3 minutes, room temperature), blocking (3% BSA (SIGMA #A9647-10G)/PBS, 1 hour, room temperature), primary antibody reaction (MBP antibody (abcam plc #ab40390), 2.5 μg/mL, 4° C., 24 hours), PBS washing, secondary antibody reaction (Alexa488 anti-rabbit IgG (Thermo Fisher Scientific, Inc. #A-11034), 5 μg/mL, room temperature, 1 hour), PBS washing, and nuclear staining (Hoechst33342 (DOJINDO #NU043), 10 μg/mL, room temperature, 5 minutes). Subsequently, images of each well were acquired using a fluorescence microscope (KEYENCE CORPORATION #BZ-X800), the number of MBP-positive cells and Hoechst 33342-positive cells were measured using an image analysis application (KEYENCE CORPORATION #BZ-X800 Analyzer), and then the ratio (the number of MBP-positive cells/the number of Hoechst33342-positive cells) was calculated. The cells seeded on the 384-well plate were subjected to real-time PCR using Cells-to-CT 1-Step TaqMan Kit (Thermo Fisher Scientific, Inc. #A25602) and QuantStudio 12K Flex Real-Time PCR System (Thermo Fisher Scientific, Inc. #4472380). The experiment was performed in accordance with the protocol attached to the kit. MBP (Thermo Fisher Scientific, Inc. #Assay ID Rn00690616_ml) and β actin (Thermo Fisher Scientific, Inc. #Assay ID Rn00667869_ml) were used as primers, and the expression levels of each were measured and the ratio (MBP/β actin) was calculated.

[2] = Evaluation of brain penetration in mice (blood and brain concentration at brain Cmax); assay type: in vivo, mouse; details: 1 mg/kg single oral dose, C57BL/6J mice; for Concentration in blood (mean ± SD) at brain Cmax / Concentration in brain (mean ± SD) at brain Cmax: n=3; for Kp: male, C57BL/6J, mouse, brain/plasma, po, 1 mg/kg, read-out: Concentration in brain/in blood ratio at brain Cmax
Summary of the method: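 Male C57BL/6J mice (8 weeks, n=3) dosed orally once at 1 […] mg/kg; plasma and brain collected at 0.25, 0.5, 1, 2, 4 and 8 h. Compound extracted with acetonitrile from brain homogenate and plasma, quantified by LC/MS/MS.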

[3] = biological target: T1, human VDR (Homo sapiens, UniProt P11473); assay: Evaluation of VDR transcription activity in human osteoblasts (HOS cells), luciferase reporter; details: Activity (EC50, VDR transcription activity), HOS cells transfected with human VDR, human RXRα and DR3 luciferase reporter; 21 hours
T1 sequence (P11473 1-427): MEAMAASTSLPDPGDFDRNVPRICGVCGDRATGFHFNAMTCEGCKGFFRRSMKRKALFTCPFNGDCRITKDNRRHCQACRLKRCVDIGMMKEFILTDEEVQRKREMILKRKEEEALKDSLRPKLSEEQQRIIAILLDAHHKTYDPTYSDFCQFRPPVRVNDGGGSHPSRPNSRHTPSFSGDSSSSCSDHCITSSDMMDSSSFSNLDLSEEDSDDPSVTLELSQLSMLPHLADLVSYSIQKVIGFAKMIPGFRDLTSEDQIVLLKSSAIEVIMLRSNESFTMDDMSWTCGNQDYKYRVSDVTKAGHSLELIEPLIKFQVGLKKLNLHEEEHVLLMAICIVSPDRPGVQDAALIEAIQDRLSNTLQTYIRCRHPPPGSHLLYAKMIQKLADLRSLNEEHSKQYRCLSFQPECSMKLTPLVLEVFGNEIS
T1 sequence (P19793 1-462 partner): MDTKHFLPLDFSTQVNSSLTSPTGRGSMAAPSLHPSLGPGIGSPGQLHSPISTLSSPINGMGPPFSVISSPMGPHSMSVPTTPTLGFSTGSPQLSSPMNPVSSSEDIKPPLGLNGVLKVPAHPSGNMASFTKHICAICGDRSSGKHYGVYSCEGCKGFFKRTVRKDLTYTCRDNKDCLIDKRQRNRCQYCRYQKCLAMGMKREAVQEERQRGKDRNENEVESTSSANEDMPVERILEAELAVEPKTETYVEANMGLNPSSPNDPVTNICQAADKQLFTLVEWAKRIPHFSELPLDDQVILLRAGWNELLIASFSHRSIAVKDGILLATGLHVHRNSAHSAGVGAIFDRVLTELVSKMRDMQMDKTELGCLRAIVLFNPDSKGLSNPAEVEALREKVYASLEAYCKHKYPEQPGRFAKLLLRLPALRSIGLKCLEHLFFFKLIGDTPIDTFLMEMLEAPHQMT

[4] = system: rat oligodendrocyte progenitor cells; assay: Promotive activity of rat oligodendrocyte progenitor cell differentiation-2 (immunostaining of MBP); assay type: cell-based; details: vitamin D derivative 2 μM, T3 30 nM, 4 days
Summary of the method: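 Rat OPCs prepared by shaking in separation medium about 22 h at 37 °C, 200 rpm, and collecting the supernatant.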

| Structure (SMILES) | Concentration in blood (mean ± SD) at brain Cmax [2] [nM] | Concentration in brain (mean ± SD) at brain Cmax [2] [pmol/g] | Kp [2] | EC50 [3] [nM] | activation at 1 µM [1] [%] | Mean (number of MBP-positive cells/number of Hoechst33342-positive cells) ([4]; Test 1) | Mean (number of MBP-positive cells/number of Hoechst33342-positive cells) ([4]; Test 2) |
| --- | --- | --- | --- | --- | --- | --- | --- |
| C=C1/C(=C\C=C2/CCC[C@]3(C)[C@@H]([C@H](C)CN4CC[C@H](C(F)F)C4)CC[C@@H]23)C[C@@H](O)[C@H](C)[C@@H]1O [Compound B021, (1R,2S,3 S,Z)-5-(2-((1R,3aS,7aR,E)-1-((S)-1-((S)-3-(difluoromethyl)pyrrolidin-1-yl)propan-2-yl)-7a-methyloctahydro-4H-inden-4-ylidene)ethylidene)-2-methyl-4-methylenecyclohexane-1,3-diol] | 320 ± 53 | 237 ± 33 | 0.74 | 10 to 100 | ≥ 20 |  |  |
| C[C@H](CCN1CCOC2(CC2)C1)[C@H]1CC[C@H]2/C(=C/C=C3C[C@@H](O)C[C@H](O)C3)CCC[C@]12C [Compound D030, (1R,3R)-5-(2-((1R,3aS,7aR,E)-1-((R)-4-(4-oxa-7-azaspiro[2.5]octan-7-yl)butan-2-yl)-7a-methyloctahydro-4H-inden-4-ylidene)ethylidene)cyclohexane-1,3-diol] |  |  |  | 1 to 10 | ≥ 20 |  |  |
| C=C1[C@H](O)CC(=C/C=C2\CCC[C@]3(C)[C@@H]([C@H](C)CCN4CCOC[C@@H]4C)CC[C@@H]23)C[C@H]1O [Compound D032, (1R,3R)-5-(2-((1R,3aS,7aR,E)-7a-methyl-1-((R)-4-((S)-3-methylmorpholino)butan-2-yl)octahydro-4H-inden-4-ylidene)ethylidene)-2-methylenecyclohexane-1,3-diol] |  |  |  | 10 to 100 | ≥ 20 |  |  |
| C[C@H](CCN1CCO[C@@H](C)C1)[C@H]1CC[C@H]2/C(=C/C=C3C[C@@H](O)C[C@H](O)C3)CCC[C@]12C [Compound D041, (1R,3R)-5-(2-((1R,3aS,7aR,E)-7a-methyl-1-((R)-4-((S)-2-methylmorpholino)butan-2-yl)octahydro-4H-inden-4-ylidene)ethylidene)cyclohexane-1,3-diol] |  |  |  | 100 to 1000 | ≥ 20 |  |  |

More lines, main results first:

| Concentration in blood (mean ± SD) at brain Cmax [2] [nM] | Concentration in brain (mean ± SD) at brain Cmax [2] [pmol/g] | Kp [2] | EC50 [3] [nM] | Structure (SMILES) | activation at 1 µM [1] [%] | Mean (number of MBP-positive cells/number of Hoechst33342-positive cells) ([4]; Test 1) | Mean (number of MBP-positive cells/number of Hoechst33342-positive cells) ([4]; Test 2) |
| --- | --- | --- | --- | --- | --- | --- | --- |
| 431 ± 46 | 652 ± 85 | 1.51 |  | C=C1/C(=C\C=C2/CCC[C@]3(C)[C@@H]([C@H](C)CN4CC[C@@H](C(F)F)C4)CC[C@@H]23)C[C@@H](O)C[C@@H]1O [Compound B024, (1R,3 S,Z)-5-(2-((1R,3aS,7aR,E)-1-((S)-1-((R)-3-(difluoromethyl)pyrrolidin-1-yl)propan-2-yl)-7a-methyloctahydro-4H-inden-4-ylidene)ethylidene)-4-methylenecyclohexane-1,3-diol] | ≥ 20 | 0.28 |  |
| 368 ± 26 | 726 ± 88 | 1.97 |  | C=C1[C@H](O)CC(=C/C=C2\CCC[C@]3(C)[C@@H]([C@H](C)CCN4CCOCC4)CC[C@@H]23)C[C@H]1O [Compound D024, (1R,3R)-5-(2-((1R,3aS,7aR,E)-7a-methyl-1-((R)-4-morpholinobutan-2-yl)octahydro-4H-inden-4-ylidene)ethylidene)-2-methylenecyclohexane-1,3-diol] | ≥ 20 |  | 0.39 |
|  |  |  | 1 to 10 | C=C1[C@H](O)CC(=C/C=C2\CCC[C@]3(C)[C@@H]([C@H](C)CCN4CCOC[C@H]4C)CC[C@@H]23)C[C@H]1O [Compound D031, (1R,3R)-5-(2-((1R,3aS,7aR,E)-7a-methyl-1-((R)-4-((R)-3-methylmorpholino)butan-2-yl)octahydro-4H-inden-4-ylidene)ethylidene)-2-methylenecyclohexane-1,3-diol] | ≥ 20 |  |  |
